Patent US9249128B2 (priority 2010, dated 2016)

Legend:
brain KIAA1363 = molecular target: T1, brain KIAA1363 (Mus musculus, UniProt Q8BLF1); experiment: Competitive ABPP of brain proteomes from inhibitor-treated mice; format: in vivo
T1 construct: ABPP analysis of KIAA1363 activity in mouse brain membrane proteome; from tissue; host or cells: mouse brain (membrane fraction)
T1 sequence (Q8BLF1 1-408): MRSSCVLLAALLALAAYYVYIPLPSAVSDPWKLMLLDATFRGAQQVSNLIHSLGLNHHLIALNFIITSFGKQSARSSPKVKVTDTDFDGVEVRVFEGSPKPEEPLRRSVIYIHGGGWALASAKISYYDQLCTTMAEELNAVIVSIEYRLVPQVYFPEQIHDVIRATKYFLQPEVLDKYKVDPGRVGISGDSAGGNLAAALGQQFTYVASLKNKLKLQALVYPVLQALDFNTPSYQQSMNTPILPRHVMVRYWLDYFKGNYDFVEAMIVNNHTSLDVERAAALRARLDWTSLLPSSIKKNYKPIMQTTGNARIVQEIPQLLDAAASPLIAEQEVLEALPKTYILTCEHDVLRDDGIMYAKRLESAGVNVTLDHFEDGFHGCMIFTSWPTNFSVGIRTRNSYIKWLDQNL
Protocol: Tissues were Dounce-homogenized in PBS, pH 7.4, followed by a low-speed spin (1,400 g, 5 min) to remove debris. The supernatant was then subjected to centrifugation (100,000×g, 45 min) to provide the cytosolic fraction in the supernatant and the unsoluble fraction as a pellet. The pellet was washed and resuspended in PBS buffer by sonication. Total protein concentration in each fraction was determined using a protein assay kit (Bio-Rad). Samples were stored at −80° C. until use.
For ABPP experiments, cell lysate and tissue proteomes were treated with 1 μM FP-rhodamine for 30 min at room temperature (50 μL total reaction volume) as described previously (Nomura et al., 2010). Reactions were quenched with one volume of standard 4×SDS/PAGE loading buffer (reducing), separated by SDS/PAGE (10% acrylamide), and visualized in-gel with a Hitachi FMBio IIe flatbed fluorescence scanner (MiraiBio). Inhibitors were preincubated prior (30 min or 4 h at 37° C. in vitro or in situ, respectively) to the addition of FP-rhodamine.
(§1) JW480 was administered by oral gavage (in PEG300, 4 μL/g mouse) or intraperitoneally (in 18:1:1 v/v/v solution of saline:ethanol:emulphor, 10 μL/g). After the indicated amount of time, mice were anesthetized with isoflurane and killed by decapitation. Tissues were removed and then flash frozen in liquid N2. Tissues were stored at −80° C. until use. Animal experiments were conducted in accordance with the guidelines of the institutional Animal Care and Use Committee of The Scripps Research Institute.

[1] = test system: serine hydrolase activities detected in the brain proteome; experiment: Competitive ABPP-MudPIT of brain membrane proteomes from treated mice; format: in vivo, mouse; settings: 20 mg/kg, oral gavage, 4 hr; off-target is carboxylesterase ES1
Protocol: (§2) Competitive ABPP-MudPIT experiments were performed as previously described (Nomura et al., 2010). Briefly, 1 mg of proteome was labeled with 5 μM FP-biotin, followed by solubilization with 1% Triton X-100, denaturation by SDS and heating, avidin precipitation of labeled proteins, and on-bead tryptic digest. Tryptic peptides were then loaded on to a biphasic (strong cation exchange/reverse phase) capillary column and analyzed by two-dimensional liquid chromatography (2D-LC) separation in combination with tandem mass spectrometry using an Agilent 1100 LC system coupled with a ThermoFisher LTQ linear ion trap mass spectrometer. Spectral counts are reported as the average of three samples with the standard error of the mean (SEM).
as §1

[2] = test system: serine hydrolase activities detected in PC3 cells; experiment: Competitive ABPP-MudPIT of PC3 cells treated in situ; format: cell-based, human; settings: 1 uM in situ treatment, 4 hr; >30 serine hydrolase activities detected in PC3 cells
Protocol: (§3) Inhibitors were dissolved in DMSO and diluted into media or buffer prior to cell or proteome treatment, respectively. For in vitro treatment, final DMSO concentration was 4%. For in situ treatments of cells for ABPP, lipid measurements, migration, cell-survival, and invasion assays, 2×10^6 cells were seeded in 6 cm dishes (˜100% confluency) 24 h prior to inhibitor pre-treatment (in DMSO at 0.1% final concentration) in serum-free media (3 mL) for the designated time before harvesting cells for ABPP or lipid measurements or before the initiation of migration, cell-survival, and invasion assays.
as §2

LNCaP cells = experiment: Cell survival assay in LNCaP cells; format: cell-based, human; settings: 1 μM, 48 h in situ treatment; cells express low levels of KIAA1363
Protocol: as §3
Cell migration, cell survival, and invasion studies were performed as previously described (Nomura et al., 2010). Briefly, migration assays were performed in Transwell chambers (Corning) with 8 μm pore-sized membranes coated with 10 μg/mL collagen at 37° C. for LNCaP (24 h), PC3 (4 h) and DU145 cells (24 h), respectively. Cell survival assays were performed using the Cell Proliferation Reagent WST-1 (Roche) Invasion assays were conducted using the BD Matrigel Invasion Chambers per the manufacturer's protocol. Inhibitors were preincubated for the stated duration before seeding cells into migration, cell-survival, or invasion chambers. Prior to seeding the cells in these chambers, cells were serum-starved for 4 h. Inhibitors were also present during the migration, cell-survival, and invasion assays.

KIAA1363 = molecular target: T2, KIAA1363 (Homo sapiens, UniProt Q6PIU2); experiment: 2-acetyl MAGE hydrolytic activity assay in cancer cells treated in situ; format: cell-based; parameters: PC3 cancer cells, which have high endogenous KIAA1363 levels; endogenous in cells; host or cells: PC3 (2-acetyl MAGE assay also DU145 and SKOV3); settings: JW480 1 μM, 48 h; PC3 and DU145 cells
T2 sequence (Q6PIU2 1-408): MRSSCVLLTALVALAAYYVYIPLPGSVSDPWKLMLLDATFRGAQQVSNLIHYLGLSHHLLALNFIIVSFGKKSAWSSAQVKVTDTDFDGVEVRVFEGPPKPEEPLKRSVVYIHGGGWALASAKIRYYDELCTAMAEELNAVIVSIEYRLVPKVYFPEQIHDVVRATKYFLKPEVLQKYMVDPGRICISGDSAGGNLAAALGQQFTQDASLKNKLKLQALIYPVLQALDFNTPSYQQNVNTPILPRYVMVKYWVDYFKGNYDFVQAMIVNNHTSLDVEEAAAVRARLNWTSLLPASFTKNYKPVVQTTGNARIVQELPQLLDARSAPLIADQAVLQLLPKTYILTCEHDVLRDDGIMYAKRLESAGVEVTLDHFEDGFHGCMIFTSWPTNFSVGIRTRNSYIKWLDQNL
Protocol: Cells were pretreated with KIAA1363 inhibitors in situ (for 4 hr in serum-free F-12K media before harvesting cells by scraping) or in vitro (for 30 min at 37° C. in PBS) before addition of 2-acetyl MAGE (100 μM) to cell lysates at room temperature for 30 min in a volume of 200 μL. Reactions were quenched with 600 μL 2:1 chloroform:methanol and 10 nmol of C12:0 MAGE internal standard was added. The organic layer was extracted and 30 μL injected into an Agilent 1100-MSD LC-MS. LC-MS settings were as previously described (Chiang et al., 2006). Product levels (C16:0 MAGE) were quantified in relation to the internal standard. Specific activity was determined during the linear phase of enzymatic reactions (i.e., less than 20% substrate utilized).
Cell lysates (20 μg) in Tris buffer were then incubated with lipid (100 mM, e.g., 2-acetyl MAGE for KIAA1363 activity) at room temperature for 30 min in a volume of 200 ml. Reactions were quenched with 600 ml 2:1 chloroform:methanol and 10 nmol of C12:0 MAGE internal standard was added. […] Product levels (C16:0 MAGE for KIAA1363 activity) were quantified in relation to internal standard levels and standard curves generated between varying lipid concentration versus constant internal standard levels. Specific activity was determined during the linear phase of enzymatic reactions (i.e., less than 20% substrate utilized)

Question: `CC(C)c1ccccc1OC(=O)NCCc1ccc2ccccc2c1` [JW480, 2-isopropylphenyl (2-(naphthalen-2-yl)ethyl)carbamate] was tested. Which “Selectivity for KIAA1363 in brain proteomes from treated mice (gel-based ABPP)” value (brain KIAA1363; 1-80 mg/kg, i.p. or oral, 4 hr) did it give?
Answer: excellent selectivity

Question: And the “Dose required to completely inactivate brain KIAA1363 in SCID mice” value (brain KIAA1363; immunedeficient SCID mouse strain, oral)?
Answer: 80 mg/kg

Question: And the “Dose giving complete inhibition of brain KIAA1363, i.p.” value (brain KIAA1363; mice, i.p., 4 hr)?
Answer: 5 mg/kg

Question: And the “Dose giving complete inhibition of brain KIAA1363, oral” value (brain KIAA1363; normal mice, oral, 4 hr)?
Answer: 20 mg/kg

Question: And the “Duration of KIAA1363 inhibition in vivo” value (brain KIAA1363; single administration 20 mg/kg, oral)?
Answer: up to 24 hr

Question: What about the “Off-targets among ~30 brain serine hydrolase activities (ABPP-MudPIT)” value [1] of the same compound?
Answer: only a single off-target was observed

Question: What about the “Off-target activity across serine hydrolases (ABPP-MudPIT)” value [2] of the same compound?
Answer: no off-target activity

Question: What about the “Survival of LNCaP cells” value (LNCaP cells) of the same compound?
Answer: does not affect

Question: And the “2-acetyl MAGE hydrolase activity” value (KIAA1363)?
Answer: completely blocked
